Experiments:
[1] = system: C006 and C092 melanoma cell lines; test: Proliferation by IncuCyte Zoom real time cell imaging, less sensitive lines; format: cell-based, human; conditions: C006 and C092, 5 μM, 48 hours, compared to vehicle
Experimental: Four cell lines were then chosen for further analysis. These were C006 (NRAS mt), C092 (Triple wt), C008 (NF1 mt) and D05 (BRAF mt). These four lines are representatives of the 4 cutaneous melanoma genomic subtypes and include 2 lines (C008 and D05) that were very sensitive to the inhibitor and 2 lines that were less sensitive (C006 and C092). Proliferation of these lines was evaluated by real time cell imaging using IncuCyte Zoom where cells were grown for 48 hours in the presence or absence of 5 μM UNC0642.
For proliferation studies, cells (5×10^3) were seeded in 96-place wells and allowed to adhere overnight, and incubated in fresh growth medium in the presence of either the G9a inhibitor UNC0642 (Sigma Aldrich) or the vehicle control DMSO (Sigma Aldrich). Proliferation was evaluated via real-time imaging using IncuCyte Zoom (Essen BioScience) and/or by performing a 3-(4,5-dimethylthiazol-2-yl)-2,5-diphenyltetrazolium bromide ([…]) assay. After monitoring the cells, 20 μL of MTT (5 mg/mL; Sigma-Aldrich) was added. The plates were incubated at 37° C. for 3 h before the supernatants were removed, and 100 μL of isopropanol was added to each well. The absorbance value (optical density) of each well was measured at 570 nm.

C092 cell line = test: Cell viability of C092 with LC3B knock down following G9a inhibitor treatment; format: cell-based, human; conditions: data not shown
Excerpt: Therefore, the basal levels of important autophagy related proteins were examined in the melanoma cell lines used in this study. It is has been shown that the inhibition of G9a can cause an induction of the autophagy-related gene 5 (ATG5), Beclin-1 (known also as ATG6) and the conversion of microtubule-associated protein 1 light chain 3 beta (MAP1LC3B or LC3B for short) I (17 KDa) to LCB3 II (15 KDa) through proteolytic cleavage and lipidation (de Narvajas et al. (2013) and Li et a. (2015). These changes are considered a hallmark of mammalian autophagy. When cells undergo autophagy, conversion of a fraction of cytoplasmic LC3B Ito autophagic membrane form LC3B II can be detected by western blot or by immunofluorescence. This conversion correlates with autophagic activity (Kabeya et al (2000) Embo J 19, 5720-5728), therefore the levels of LC3B II can be considered a reliable marker of autophagy. […] To assess whether lowering LC3B levels in the C092 non-responsive cell line would allow increased sensitivity to the G9a inhibitor treatment, cell viability of C092 following G9a inhibitor treatment was assessed.

D20 melanoma cells = test: In vivo tumor growth analysis, D20 melanoma xenograft; parameters: species or system SCID mice; conditions: 5 mg/kg every two days for two weeks, vs vehicle control
Experimental: To determine the effect of inhibiting G9a on tumor growth, 6-8 week old SCID mice were subcutaneously injected with D20 BRAF mutant cutaneous melanoma cells. Palpable tumors were allowed to establish (approx. 10 days) before UNC0642 was administered at 5 mg/kg every two days for two weeks. The D20 cell line was used in the subcutaneous model as it had been shown previously to be tumorigenic in vivo and was also sensitive to the drug in vitro.
Groups of 8 SCID mice per treatment group were used for xenograft studies to ensure adequate power to detect biological differences. All experiments were approved by the QIMR Berghofer Medical Research Institute Animal Ethics Committee. D20 melanoma cells (2×106) were mixed 1:1 ratio with Growth factor-reduced Matrigel (BD Biosciences) and injected subcutaneously into the flank of 6-8 week old mice in 100 μL volume (day 0) and treatments, either DMSO or UNC0642 at 5 mg/kg were administered as indicated in the figure legends. Tumor volumes (width2×length/2) were measured using a digital calliper, and presented as mean±SD. All animals were sacrificed at the same time and the tumors were dissected for further analysis.

[2] = system: D05 and C092 melanoma cell lines; test: Cell cycle analysis (flow cytometric analysis); format: cell-based, human; conditions: data not shown
LC3B II = test: Immunoblotting analysis of LC3B I/II; format: cell-based, human; conditions: D05 and C008 cell lines, 5 μM, 8 hours, FIG. 6
Experimental: For immunoblotting, protein whole cell lysates were prepared using RIPA lysis buffer containing 20 mM Tris, pH 8.0, 150 mM NaCl, 10% glycerol, 1% Nonidet P-40 containing protease inhibitor cocktail (Roche). Nuclear extracts were obtained using a standard high salt extraction buffer (20 mM HEPES (pH 7.9), 0.32 M NaCl, 1 mM EDTA, and 1 mM EGTA) supplemented with 1mM DU and protease inhibitor cocktail. Protein assays were performed according to the Bradford method using a protein assay kit (BioRad). […] of denatured proteins were separated using 10% sodium dodecyl sulfate-polyacrylamide gel electrophoresis (SDS-PAGE) and transferred to Polyvinylidene difluoride (PVDF) membranes. The membranes were blocked for 1 hour in 5% skim milk in Tris-buffered saline with Tween 20 (TBST; 10 mM Tris-HCl, 150 mM NaCl, 0.1% Tween 20). Immunoblotting was performed with primary anti G9a (#3306, Cell Signaling), H3K9me2 (ab 1220, Abcam), H3 (ab1791, Abcam) or Tubulin (ab6046, Abcam) and detected with either HRP-conjugated anti-rabbit (#7074, Cell Signaling Technology) or HRP-conjugated anti-mouse (#7076, Cell Signaling Technology). After applying ECL detection reagents (GE Healthcare), protein bands were visualized using X-ray film (Fujifilm).
Immunoblotting analysis was performed as described above, but also utilizing an anti-LC3B primary antibody (ab48394, Abcam).

Q: For `COc1cc2c(NC3CCN(C(C)C)CC3)nc(N3CCC(F)(F)CC3)nc2cc1OCCCN1CCCC1` [UNC0642], which proliferation [1] is on record?
A: much less affected

Q: And the “cell viability following G9a inhibitor treatment” value (C092 cell line)?
A: significantly reduced

Q: What about the tumor weight (D20 melanoma cells; end-point, P<0.01, FIG. 10B) of the same molecule?
A: statistically significantly reduced

Q: What about the tumor growth (D20 melanoma cells; intraperitoneally, P<0.05, FIG. 10A) of the same molecule?
A: statistically significantly reduced

Q: And the “increase in preG1 population” value ([2]; C092 (less G9a inhibitor responsive) cell line)?
A: absent

Q: What about the cell cycle status ([2]; D05 and C092, flow cytometric analysis) of the same molecule?
A: neither D05 nor C092 showed any changes in cell cycle status

Q: And the “increase in cells in preG1 phase” value ([2]; G9a inhibitor responsive cells (D05))?
A: greater than 4 fold

Q: And the “cells in both G1 and G2/M phases” value [2]?
A: reduction

Q: What about the “LC3B II protein levels” value (LC3B II) of the same molecule?
A: dramatically increased
